Reference: patent US9688760B2, “Anti-leukocyte adhesion for the mitigation of potential adverse events caused by CD3-specific binding domains” (AMGEN RESEARCH (MUNICH) GMBH, priority 2013, dated 2017)
Like-named read-outs stand apart in the source and are kept apart here.

Legend:
patients [1] = assay: Phase 1 clinical study: Blinatumomab with PPS co-medication; type: in vivo, human; conditions: for clinical response: with PPS co-medication
Experimental: In a phase 1 clinical study three patients were treated with Blinatumomab at an initial dose of 5 μg/m^2/day for 1 week followed by a dose escalation to 60 μg/m^2/day for additional 3 to 7 weeks.

HUVEC = assay: In vitro flow chamber: T cell-rolling and adhesion on HUVEC, long-term conditions; type: cell-based, human; conditions: 40 min
Experimental: Human brain microvascular endothelial cells (HBMEC) (#1000, Sciencell Research Laboratories) or human umbilical vein endothelial cells (HUVEC) (#C-12200, Promocell) were used as endothelial cell-model. Cryopreserved HBMEC at passage 1 (>5×10^5 cells/ml) were first cultivated in fibronectin-coated Nunclon-treated 75 cm^2 cell culture flasks (#156499, Nunc) at 37° C. and 5% CO2 in a Heraeus Cytoperm 2 (Thermo Scientific) according to the manufacturer's instructions. Sub-cultivation of HBMEC was done with the Detach Kit (#C-41200, Promocell) consisting of HEPES-buffered balanced salt solution (#C-40000, Promocell), trypsin-EDTA solution (0.04%/0.03%) (#C-41000, Promocell) and trypsin neutralization solution (TNS, #C-41100, Promocell). Briefly, the medium was aspirated from the HBMEC-layer and cells were washed with 2 ml of HEPES-buffered balanced salt solution. Addition of 2 ml of trypsin-EDTA solution for 1-5 min at room temperature led to detachment of HBMEC from the flask bottom. Inactivation of trypsin-EDTA solution was performed by addition of 2 ml of trypsin neutralization solution to the cell suspension. Cells were centrifuged at 300 g for 4 min in a Heraeus Megafuge 40 (Thermo Scientific) and seeded at a cell density of 5×10^5 cells per gelatin-coated 75 cm^2 cell culture flask (#L7230, Biochrom). HBMEC for rolling and adhesion experiments were cultivated in RPMI 1640 medium (#FG1215, Biochrom) supplemented with Nu-Serum IV (10%) (#355505, BD Biosciences), dialyzed FBS (10%) (#SZ0115, Biochrom), MEM-vitamins (1%) (#K0373, Biochrom), L-glutamine (1%) (#K0283, Biochrom), sodium-pyruvate (1%) (#L0473, Biochrom), heparin (10 U/ml) (#L6510, Biochrom), and […] cell growth factor ECGS (30 μg/ml) (#02-102, Millipore). Cultivation of HUVEC was done in endothelial cell growth medium (#C-22010, Promocell) supplemented with dialyzed FBS (10%) (#SZ0115, Biochrom) using gelatin-coated 75 cm^2 cell culture flasks. Sub-cultivation of HUVEC was performed with the Detach Kit ([…], Promocell) and cells were seeded at a cell density of 4.0-7.5×10^5 cells per 75 cm^2 cell culture flask.
Isolation of human PBMC from blood was performed by modified density gradient centrifugation as described elsewhere. Briefly, 15-20 ml of freshly drawn heparinized blood was transferred in Biocoll (#L6115, Biochrom)-containing Leukosep tubes (#227290, Greiner bio-one) and centrifuged in a Hettich Rotanta 460 RS Type 5606 (Hettich Laborapparate) at 1066 g for 15 min. After removal of the plasma fraction the PBMC containing phase was transferred in a new tube and washed twice with FACS-buffer (D-PBS #L1820, 5% FBS #SO115, Biochrom). Erythrocyte lysis was performed with lysis buffer (8.29 g/l NH4Cl, 1.00 g/l KHCO3, 0.037 g/l EDTA) for 5 min at room temperature. […]

patients [2] = conditions: cited from earlier work
[3] = three patients with PPS co-medication

Blinatumomab: recombinant CD19×CD3 bispecific scFv antibody consisting of four immunoglobulin variable domains assembled into a single polypeptide chain
clinical response (patients [1]; Patient 109-036, Follicular Lymphoma grade I/II, after 57 days of civ infusion): complete response (CR) | clinical response (patients [1]; Patient 109-040, Lymphoplasmocytic Lymphoma, after 30 days of civ infusion): stable disease (SD) | clinical response (patients [1]; Patient 109-042, Follicular Lymphoma grade I/II, after 56 days of civ infusion): complete response (CR) | T cell-counts in peripheral blood 45 minutes after start of infusion or stepwise dose increase (patients [1]; patients receiving Blinatumomab without co-medication with PPS): rapid decline of T cell-counts | clinical response after 4 weeks of treatment (patients [1]; [3]): one patient had a stable disease | clinical response after 8 weeks of treatment (patients [1]; [3]): Two out of the three patients achieved a complete response | increase of number of adhering T cells (HUVEC; +AMG 103 10 ng/ml vs T cells alone, long-term): 2.1 fold | mean T cell-rolling velocity±SD (HUVEC; non-stimulated HUVEC (minocycline experiment), +AMG 103 10 ng/ml, control −AMG 103 169): 127±41 μm/sec | effect on malignant B cells in bone marrow and liver (patients [2]; B-NHL): clearance of malignant B cells from bone marrow and liver | clinical response (patients [2]; B-NHL, dose level of 0.015 mg/m^2/day): Partial and complete responses were first observed | effect on B lymphoma cells in peripheral blood (patients [2]; B-NHL, doses as low as 0.005 mg/m^2/day civ infusion over four weeks): complete and sustained elimination of B lymphoma cells in peripheral blood | clinical response (patients [2]; B-precursor ALL, minimal residual disease and relapsed or refractory, four-week civ infusions, 0.015 mg/m^2/day): hematological complete response | clinical response (patients [2]; majority of B-NHL patients, dose level of 0.06 mg/m^2/day): substantial tumor regression
